Source: ChEMBL document CHEMBL1201862, “PubChem BioAssay data set” (2004)
Active and inactive are the calls of the source.

Experiments:
Cytochrome P450 2C9 = Cytochrome P450 2C9 (Homo sapiens, UniProt P11712)
Cytochrome P450 3A4 = Cytochrome P450 3A4 (Homo sapiens, UniProt P08684);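 also: CYP3A4 tested as one member of a cytochrome P450 panel screen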
HEK293 [1] = assay: cells; conditions: Homo sapiens
[2] = THP-1 cell cytotoxicity, dose response, cytotoxicity control for non-replicating M. tuberculosis project (AID 489025); assay type: functional
HEK293 [3] = assay: cells; conditions: Homo sapiens; remark: listed apart in the source
A-375 [4] = assay: A375 melanoma cell viability reduction, dose response, counter-screen for MITF modulator project, cherry-pick samples, set 2 (AID 540335); assay type: functional, cell-based; conditions: Homo sapiens
[5] = molecular target: T1, Microphthalmia-associated transcription factor (Homo sapiens, UniProt O75030); assay: TRPM1 promoter luciferase signal decrease, dose response, MITF inhibitor project, cell-based, SK-MEL-5, cherry-picked, set 3 (AID 493073); assay type: functional
T1 sequence (O75030 whole entry): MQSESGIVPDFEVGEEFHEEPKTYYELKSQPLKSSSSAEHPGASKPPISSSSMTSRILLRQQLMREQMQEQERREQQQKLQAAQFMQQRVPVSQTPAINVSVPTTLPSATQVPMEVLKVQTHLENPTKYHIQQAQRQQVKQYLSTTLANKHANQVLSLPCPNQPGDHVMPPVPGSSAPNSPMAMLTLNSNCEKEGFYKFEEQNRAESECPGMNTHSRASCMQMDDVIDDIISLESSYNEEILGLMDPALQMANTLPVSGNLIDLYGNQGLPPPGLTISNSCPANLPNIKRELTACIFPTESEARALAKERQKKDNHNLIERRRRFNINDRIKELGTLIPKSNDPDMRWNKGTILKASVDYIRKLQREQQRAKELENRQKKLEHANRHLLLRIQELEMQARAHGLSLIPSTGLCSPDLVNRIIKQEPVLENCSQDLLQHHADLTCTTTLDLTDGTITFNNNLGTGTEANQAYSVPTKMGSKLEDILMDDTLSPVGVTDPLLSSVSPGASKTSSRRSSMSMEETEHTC

[6] = Luminescence Cell-Based Dose Retest to Confirm Inhibitors of Cancer Stem Cells. [Related pubchem assays (depositor defined):AID2717, AID2721]; assay type: functional; conditions: Homo sapiens
cells = assay type: functional
A-375 [7] = assay: MITF: Counter assay: A375 proliferation Measured in Cell-Based System Using Plate Reader - 2084-03_Inhibitor_Dose_DryPowder_Activity. [Related pubchem assays (depositor defined):AID488944]; assay type: functional; conditions: Homo sapiens
[8] = ZM109 Env clade C HIV-1 fusion inhibitors, dose response, HeLa effector, CEM target cells, luciferase, cherry-pick (AID 652058); assay type: functional, cell-based
[9] = inhibitors of HIV Env-driven cell fusion, dose response, cherry-pick (AID 652057); assay type: functional, cell-based
[10] = off-target signal loss in HeLa-CEM21 co-culture – HeLa F-luc CTL cells, cherry-picked, counter-screen for HIV-1 Env fusion inhibitor project, dose response (AID 652040); assay type: functional, cell-based;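 also: potency for signal decrease marking cytotoxic or nonspecific inhibition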
[11] = inhibitors of clade B AD8 Env fusion, dose response, cell-based, cherry-pick (AID 652062); assay type: functional;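 also: luciferase signal from cell-cell fusion driven by HIV-1 clade B AD8 Env; potency is for inhibitors of fusion seen as a drop in luminescence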
[12] = molecular target: Delta-type opioid receptor (Homo sapiens, UniProt P41143); assay: Counterscreen for agonists of heterodimerization of the mu 1 (OPRM1) and delta 1 (OPRD1) opioid receptors: Luminescence-based cell-based high throughput dose response assay to identify agonists of OPRD1 homodimerization. [Related pubchem assays (depositor defined):AID504326, AID504355, AID504692, AID504904, AID504905]; assay type: functional
Chain of Delta-type opioid receptor (P41143 whole entry): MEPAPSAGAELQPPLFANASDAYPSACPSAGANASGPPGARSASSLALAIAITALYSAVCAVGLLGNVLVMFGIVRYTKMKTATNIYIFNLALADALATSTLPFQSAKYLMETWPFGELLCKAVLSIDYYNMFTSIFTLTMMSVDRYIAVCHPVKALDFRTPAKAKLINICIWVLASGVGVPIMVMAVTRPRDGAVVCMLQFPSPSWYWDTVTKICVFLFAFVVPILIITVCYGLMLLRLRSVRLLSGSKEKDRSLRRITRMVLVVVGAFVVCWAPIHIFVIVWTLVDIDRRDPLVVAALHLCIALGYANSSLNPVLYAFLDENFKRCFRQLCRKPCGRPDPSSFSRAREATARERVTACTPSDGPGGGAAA

[13] = molecular target: T2, Short transient receptor potential channel 4 (Mus musculus, UniProt Q9QUQ5); assay: mouse TRPC4 channel activators, dose response, cell-based, HEK293 TRPC4/mu-opioid, Fluo-4 calcium (AID 434937); assay type: functional
T2 sequence (Q9QUQ5 whole entry): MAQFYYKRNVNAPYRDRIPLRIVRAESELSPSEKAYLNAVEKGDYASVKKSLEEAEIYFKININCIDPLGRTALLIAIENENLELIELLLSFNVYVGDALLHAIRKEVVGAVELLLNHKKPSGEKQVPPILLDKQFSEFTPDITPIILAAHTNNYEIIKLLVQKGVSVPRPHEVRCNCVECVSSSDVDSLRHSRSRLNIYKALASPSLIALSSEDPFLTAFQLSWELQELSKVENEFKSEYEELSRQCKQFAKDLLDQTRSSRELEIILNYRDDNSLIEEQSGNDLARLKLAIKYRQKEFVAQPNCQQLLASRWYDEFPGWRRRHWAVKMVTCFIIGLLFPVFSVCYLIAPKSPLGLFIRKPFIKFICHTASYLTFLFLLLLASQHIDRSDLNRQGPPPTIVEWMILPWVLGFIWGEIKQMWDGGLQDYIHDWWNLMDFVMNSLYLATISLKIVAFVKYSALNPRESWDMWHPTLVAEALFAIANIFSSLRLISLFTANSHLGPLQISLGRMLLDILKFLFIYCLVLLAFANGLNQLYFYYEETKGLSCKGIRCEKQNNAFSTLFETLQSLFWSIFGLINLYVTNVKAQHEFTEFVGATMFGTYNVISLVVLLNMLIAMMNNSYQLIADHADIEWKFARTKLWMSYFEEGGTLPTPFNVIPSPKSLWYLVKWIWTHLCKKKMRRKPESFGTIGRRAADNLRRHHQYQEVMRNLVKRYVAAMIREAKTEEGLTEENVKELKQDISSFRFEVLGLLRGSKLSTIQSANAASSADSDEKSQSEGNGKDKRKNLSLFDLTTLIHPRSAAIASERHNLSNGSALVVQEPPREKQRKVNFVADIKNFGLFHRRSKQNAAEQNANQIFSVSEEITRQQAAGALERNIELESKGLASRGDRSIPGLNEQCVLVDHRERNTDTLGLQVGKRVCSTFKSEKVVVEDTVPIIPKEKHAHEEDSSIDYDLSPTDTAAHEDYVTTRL

Mu-type opioid receptor = Mu-type opioid receptor (Homo sapiens, UniProt P35372); assay: Counterscreen for agonists of heterodimerization of the mu 1 (OPRM1) and delta 1 (OPRD1) opioid receptors: Luminescence-based cell-based high throughput dose response assay to identify agonists of OPRM1 homodimerization.; assay type: functional;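 also: U2OS cells expressing OPRM1 and beta-arrestin as split beta-galactosidase partners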
Chain of Mu-type opioid receptor (P35372 whole entry): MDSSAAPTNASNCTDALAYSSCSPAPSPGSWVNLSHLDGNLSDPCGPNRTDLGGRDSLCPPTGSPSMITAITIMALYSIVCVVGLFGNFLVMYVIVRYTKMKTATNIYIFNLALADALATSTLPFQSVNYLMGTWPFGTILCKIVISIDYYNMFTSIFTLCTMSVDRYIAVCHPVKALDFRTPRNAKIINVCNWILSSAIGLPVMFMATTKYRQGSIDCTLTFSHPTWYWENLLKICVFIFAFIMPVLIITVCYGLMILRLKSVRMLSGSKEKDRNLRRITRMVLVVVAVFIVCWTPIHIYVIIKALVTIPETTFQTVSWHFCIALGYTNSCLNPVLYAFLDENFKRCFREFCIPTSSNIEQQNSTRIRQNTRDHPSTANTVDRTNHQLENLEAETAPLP

[14] = molecular target: 5-hydroxytryptamine receptor 5A (Homo sapiens, UniProt P47898); assay: Counterscreen for agonists of OPRM1-OPRD1 heterodimerization: luminescence-based cell-based high throughput dose response assay to identify agonists of 5-hydroxytryptamine (serotonin) 5A receptor (HTR5A). [Related pubchem assays (depositor defined):AID504326, AID504355, AID504692, AID504904, AID504905]; assay type: functional
Chain of 5-hydroxytryptamine receptor 5A (P47898 whole entry): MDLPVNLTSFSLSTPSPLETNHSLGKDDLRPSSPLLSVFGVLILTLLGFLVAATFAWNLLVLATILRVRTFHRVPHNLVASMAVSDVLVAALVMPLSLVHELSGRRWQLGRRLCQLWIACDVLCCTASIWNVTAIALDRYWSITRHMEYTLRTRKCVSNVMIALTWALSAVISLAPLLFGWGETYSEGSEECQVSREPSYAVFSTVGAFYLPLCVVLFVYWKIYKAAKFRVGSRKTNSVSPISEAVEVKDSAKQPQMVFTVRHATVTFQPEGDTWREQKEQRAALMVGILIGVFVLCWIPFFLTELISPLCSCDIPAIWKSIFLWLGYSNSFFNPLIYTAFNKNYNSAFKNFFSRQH

Escherichia coli = assay: microbe, parasite or virus in culture
[15] = molecular target: T3, DNA repair protein RAD52 homolog (Homo sapiens, UniProt P43351); assay type: functional, biochemical
T3 sequence (P43351 whole entry): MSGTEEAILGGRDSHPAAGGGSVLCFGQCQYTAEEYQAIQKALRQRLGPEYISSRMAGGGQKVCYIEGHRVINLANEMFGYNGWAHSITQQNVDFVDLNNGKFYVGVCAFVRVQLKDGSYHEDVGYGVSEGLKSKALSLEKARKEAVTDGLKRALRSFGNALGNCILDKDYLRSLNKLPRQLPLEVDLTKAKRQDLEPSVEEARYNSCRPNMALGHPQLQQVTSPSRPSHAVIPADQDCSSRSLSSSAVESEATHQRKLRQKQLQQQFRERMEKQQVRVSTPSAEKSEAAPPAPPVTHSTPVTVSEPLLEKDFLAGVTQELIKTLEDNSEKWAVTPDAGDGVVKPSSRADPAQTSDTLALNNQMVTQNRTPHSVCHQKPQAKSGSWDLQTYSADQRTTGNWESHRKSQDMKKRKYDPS

[16] = molecular target: T4, Ubiquitin-conjugating enzyme E2 N (Homo sapiens, UniProt P61088); assay type: functional
T4 sequence (P61088 whole entry): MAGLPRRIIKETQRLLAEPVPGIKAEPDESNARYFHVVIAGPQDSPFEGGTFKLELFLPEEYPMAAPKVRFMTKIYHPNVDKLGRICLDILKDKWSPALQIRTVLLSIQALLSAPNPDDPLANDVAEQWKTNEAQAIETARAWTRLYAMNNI

[17] = molecular target: T4, Ubiquitin-conjugating enzyme E2 N; assay type: functional; remark: listed apart in the source
Bcl-2-related protein A1 = molecular target: T5, Bcl-2-related protein A1 (Mus musculus, UniProt Q07440); assay type: functional;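 also: confirmatory dose–response counterscreen on Bfl-1, used to check hits from a UBC13 polyubiquitin inhibitor campaign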
T5 sequence (Q07440 whole entry): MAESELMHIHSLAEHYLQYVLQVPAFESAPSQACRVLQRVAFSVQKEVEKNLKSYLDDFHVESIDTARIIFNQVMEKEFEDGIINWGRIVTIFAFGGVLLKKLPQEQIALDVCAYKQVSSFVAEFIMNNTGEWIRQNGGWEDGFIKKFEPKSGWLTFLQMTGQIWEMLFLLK

HEK293 [18] = assay: NOD2 signaling inhibitors in MDP-stimulated cells, cell-based, uHTS, luminescence (AID 2001); assay type: functional; conditions: Homo sapiens
HEK293 [19] = assay: cells; assay type: functional, cell-based; conditions: Homo sapiens
HEK293 [20] = assay: cells; assay type: functional, cell-based; conditions: Homo sapiens; remark: listed apart in the source
[21] = molecular target: COUP transcription factor 2 (Homo sapiens, UniProt P24468); assay: Luminescence-based cell-based high throughput dose response assay to identify inhibitors of COUP-TFII (NR2F2).; assay type: functional;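 also: HEK293 cells transiently cotransfected with COUP-TFII expression vector and reporter; luciferase reporter luminescence driven by COUP-TFII from the pX2-168 reporter plasmid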
Chain of COUP transcription factor 2 (P24468 whole entry): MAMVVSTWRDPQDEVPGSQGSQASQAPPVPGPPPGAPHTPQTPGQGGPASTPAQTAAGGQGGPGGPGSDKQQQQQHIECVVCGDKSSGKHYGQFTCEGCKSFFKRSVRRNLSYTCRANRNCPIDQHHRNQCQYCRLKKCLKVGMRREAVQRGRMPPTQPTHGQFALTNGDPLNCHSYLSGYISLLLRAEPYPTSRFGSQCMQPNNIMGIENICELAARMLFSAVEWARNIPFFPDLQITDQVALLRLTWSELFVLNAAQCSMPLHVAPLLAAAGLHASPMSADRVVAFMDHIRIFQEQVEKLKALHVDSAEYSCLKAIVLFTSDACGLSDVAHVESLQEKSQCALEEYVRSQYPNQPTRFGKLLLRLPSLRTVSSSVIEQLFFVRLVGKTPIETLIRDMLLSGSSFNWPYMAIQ

HEK293 [22] = assay: NOD1 signaling inhibitors, primary screen, cell-based, luminescence, uHTS (AID 1578); assay type: functional; conditions: Homo sapiens
[23] = molecular target: Ras and Rab interactor 1/Tyrosine-protein kinase ABL1 (Homo sapiens, UniProt P00519+Q13671); assay type: functional;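 also: biochemical TR-FRET dose-response test measuring inhibition of binding between Rin1 and Abl proteins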
[24] = molecular target: Intestinal-type alkaline phosphatase (Mus musculus, UniProt P24822); assay: PubChem AID 488875; assay type: functional
Chain of Intestinal-type alkaline phosphatase (Mus musculus, UniProt P24822) (P24822 whole entry): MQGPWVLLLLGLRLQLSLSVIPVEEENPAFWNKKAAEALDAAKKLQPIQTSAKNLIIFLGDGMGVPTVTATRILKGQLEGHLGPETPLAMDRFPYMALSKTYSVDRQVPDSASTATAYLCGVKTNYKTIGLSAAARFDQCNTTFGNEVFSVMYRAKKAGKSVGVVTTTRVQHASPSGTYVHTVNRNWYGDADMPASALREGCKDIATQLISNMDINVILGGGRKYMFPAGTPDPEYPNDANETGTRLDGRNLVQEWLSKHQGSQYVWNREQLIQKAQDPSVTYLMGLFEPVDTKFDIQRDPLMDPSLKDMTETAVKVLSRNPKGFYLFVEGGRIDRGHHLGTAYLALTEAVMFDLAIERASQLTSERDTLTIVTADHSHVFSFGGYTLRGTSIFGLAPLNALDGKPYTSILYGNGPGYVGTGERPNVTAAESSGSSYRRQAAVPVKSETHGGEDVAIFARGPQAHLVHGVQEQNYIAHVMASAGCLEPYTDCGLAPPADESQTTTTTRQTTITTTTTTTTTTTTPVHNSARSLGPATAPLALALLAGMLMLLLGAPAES

[25] = molecular target: T6, Intestinal-type alkaline phosphatase (Homo sapiens, UniProt P09923); assay: human IAP activators, dose response, biochemical, luminescent, uHTS hits, set 2 (AID 488817); assay type: functional;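 also: potency of activators that raise enzyme activity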
T6 sequence (P09923 whole entry): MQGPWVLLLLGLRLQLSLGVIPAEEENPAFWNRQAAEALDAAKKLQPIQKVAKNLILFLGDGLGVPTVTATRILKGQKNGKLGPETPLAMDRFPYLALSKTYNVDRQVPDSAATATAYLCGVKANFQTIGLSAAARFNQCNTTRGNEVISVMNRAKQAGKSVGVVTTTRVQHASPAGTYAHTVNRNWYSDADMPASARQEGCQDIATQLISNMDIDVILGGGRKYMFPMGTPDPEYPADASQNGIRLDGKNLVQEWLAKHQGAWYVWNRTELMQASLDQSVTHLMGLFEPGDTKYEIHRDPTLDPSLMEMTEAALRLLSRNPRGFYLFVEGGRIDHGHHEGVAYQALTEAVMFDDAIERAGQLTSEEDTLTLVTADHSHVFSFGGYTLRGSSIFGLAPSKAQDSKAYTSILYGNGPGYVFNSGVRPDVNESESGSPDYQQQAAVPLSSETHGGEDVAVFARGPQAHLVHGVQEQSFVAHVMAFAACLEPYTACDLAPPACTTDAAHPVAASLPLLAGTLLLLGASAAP

[26] = molecular target: T6, Intestinal-type alkaline phosphatase; assay: human intestinal alkaline phosphatase activators, dose response, biochemical, luminescence, uHTS hits (AID 463120); assay type: functional
[27] = molecular target: T7, Alkaline phosphatase, tissue-nonspecific isozyme (Homo sapiens, UniProt P05186); assay: TNAP enzyme activators, dose response, selectivity assay for human IAP activator project, biochemical, TNAP isozyme, human IAP uHTS hits (AID 488886); assay type: functional;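 also: potency of compounds raising TNAP activity as a selectivity check on IAP activators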
T7 sequence (P05186 whole entry): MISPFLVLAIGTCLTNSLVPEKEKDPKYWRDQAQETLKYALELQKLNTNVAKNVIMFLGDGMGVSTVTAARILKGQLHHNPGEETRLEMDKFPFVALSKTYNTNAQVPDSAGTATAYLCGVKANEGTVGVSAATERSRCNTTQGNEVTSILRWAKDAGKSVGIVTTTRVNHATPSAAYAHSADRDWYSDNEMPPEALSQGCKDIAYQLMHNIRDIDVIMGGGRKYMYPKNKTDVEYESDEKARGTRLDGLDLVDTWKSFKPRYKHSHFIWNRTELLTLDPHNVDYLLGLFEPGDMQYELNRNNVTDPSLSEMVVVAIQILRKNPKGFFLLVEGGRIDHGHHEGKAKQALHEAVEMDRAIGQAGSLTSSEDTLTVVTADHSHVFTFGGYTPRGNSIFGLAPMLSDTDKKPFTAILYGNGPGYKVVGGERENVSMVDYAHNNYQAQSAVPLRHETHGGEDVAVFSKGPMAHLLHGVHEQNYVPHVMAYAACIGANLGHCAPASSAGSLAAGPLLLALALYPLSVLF

Chain of Cytochrome P450 3A4 (P08684 whole entry): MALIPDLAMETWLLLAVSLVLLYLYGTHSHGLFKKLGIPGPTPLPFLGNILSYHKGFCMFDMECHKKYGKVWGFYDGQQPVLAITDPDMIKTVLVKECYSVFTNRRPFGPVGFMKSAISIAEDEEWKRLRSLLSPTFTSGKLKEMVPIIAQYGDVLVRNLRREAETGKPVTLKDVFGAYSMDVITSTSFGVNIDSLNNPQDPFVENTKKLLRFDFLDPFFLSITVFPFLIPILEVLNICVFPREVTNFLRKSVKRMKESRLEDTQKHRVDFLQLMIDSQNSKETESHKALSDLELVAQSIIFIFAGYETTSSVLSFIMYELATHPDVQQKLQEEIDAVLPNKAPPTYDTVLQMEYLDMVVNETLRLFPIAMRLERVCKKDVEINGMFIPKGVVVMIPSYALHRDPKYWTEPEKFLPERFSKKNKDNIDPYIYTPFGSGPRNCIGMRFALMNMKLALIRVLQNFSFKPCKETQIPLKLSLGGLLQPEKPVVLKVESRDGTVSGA
Chain of Cytochrome P450 2C9 (P11712 whole entry): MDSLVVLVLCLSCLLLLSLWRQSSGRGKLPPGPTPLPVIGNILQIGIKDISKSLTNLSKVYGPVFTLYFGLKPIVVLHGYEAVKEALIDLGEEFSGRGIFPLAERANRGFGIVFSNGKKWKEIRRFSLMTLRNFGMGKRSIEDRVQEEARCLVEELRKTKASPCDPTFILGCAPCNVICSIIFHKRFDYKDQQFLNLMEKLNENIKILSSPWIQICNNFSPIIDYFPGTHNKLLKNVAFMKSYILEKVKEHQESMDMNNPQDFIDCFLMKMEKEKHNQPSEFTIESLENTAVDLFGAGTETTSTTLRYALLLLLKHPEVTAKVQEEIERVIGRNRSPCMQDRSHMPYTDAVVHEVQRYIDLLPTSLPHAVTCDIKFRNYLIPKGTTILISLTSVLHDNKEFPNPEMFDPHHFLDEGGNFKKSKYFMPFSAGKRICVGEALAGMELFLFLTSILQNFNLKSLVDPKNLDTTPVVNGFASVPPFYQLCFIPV

O=C(c1ccco1)N1CCC2(CC1)CN(C(c1ccccc1)c1ccccc1)C2
AC50 (Cytochrome P450 2C9): 25.1 µM (inconclusive) | AC50 (Cytochrome P450 3A4): inconclusive

CC(C)c1ccc(N2C(=O)NC(=O)/C(=C/C=C/c3ccco3)C2=O)cc1
EC50 (HEK293 [1]): > 59.6 µM (inactive) | CC50 [2]: 31.6 µM (active) | EC50 (HEK293 [3]): > 59.6 µM (inactive) | AC50 (A-375 [4]): > 35 µM (active) | AC50 [5]: 5.89 µM (active) | AC50 [6]: 1.81 µM (active) | IC50 (cells): 17.4 µM (active) | AC50 (A-375 [7]): > 35 µM (active)

CCCNC(=O)c1ccccc1NC(=O)c1ccccc1N(C)S(=O)(=O)c1ccccc1
EC50 (HEK293 [1]): > 59.6 µM (inactive) | EC50 (HEK293 [3]): > 59.6 µM (inactive) | AC50 [8]: 3.19 µM (active) | AC50 [9]: 1.83 µM (active) | AC50 [10]: 3.2 µM (active) | AC50 [11]: 8.47 µM (active)

Cc1nc2c(c(-c3ccccc3)c1C#N)C(=O)c1ccccc1-2
AC50 (Cytochrome P450 3A4): inconclusive

CN(C)C(CNC(=O)c1cnc(Cl)c(Cl)c1)c1ccccc1 (stereo unspecified)
EC50 [12]: 1.07 µM (active) | EC50 [13]: 0.0173 µM (active) | EC50 (Mu-type opioid receptor): 4.67 µM (active) | EC50 [14]: > 92.4 µM (inactive)

COCc1cc(O)nc2cc(NC(=O)C(F)(F)F)c(C)cc12
AC50 (Escherichia coli): 57.2 µM (active)

CCN(c1ccccc1)S(=O)(=O)c1ccc(C(=O)N(CCCN(C)C)c2nc3cc4c(cc3s2)OCO4)cc1
EC50 [13]: 5.31 µM (active) | AC50 [15]: 11.1 µM (active)

CCCCn1c(=O)c(C(=O)Nc2ccccc2S(N)(=O)=O)c(O)c2ccccc21
IC50 [16]: > 20 µM (inactive) | IC50 [17]: 15.5 µM (active) | IC50 (Bcl-2-related protein A1): 2.02 µM (active)

C=CC[n+]1c(-c2ccc(Cl)cc2Cl)csc1Nc1c(C)n(C)n(-c2ccccc2)c1=O
IC50 (HEK293 [18]): 7.13 µM (active) | IC50 (HEK293 [19]): > 20 µM (inactive) | IC50 (HEK293 [20]): 6.87 µM (active) | IC50 [21]: 9.47 µM (active) | EC50 (HEK293 [22]): 5.29 µM (active)

CC(C)n1cc(CN2CCC(C(=O)Nc3cccc(-c4cccc(Cl)c4)c3)CC2)cn1
IC50 [23]: 16.4 µM (inactive) | EC50 [24]: 88 µM (active) | EC50 [25]: 67.3 µM (active) | EC50 [26]: 82.8 µM (active) | EC50 [27]: 66.1 µM (active)

COc1ccccc1CN1CCC(n2nccc2NC(=O)CCCc2ccccc2)CC1
EC50 [24]: 51.3 µM (active) | EC50 [25]: 60.4 µM (active) | EC50 [26]: 74 µM (active) | EC50 [27]: 75.8 µM (active)
